Where two headings read alike, the source gives them in different places.
Columns and labels:
[1] = test system: A549 human cancer cell line; conditions: cited from earlier work
[2] = test system: LPS-stimulated RAW264.7 macrophages; conditions: cited from earlier work
[3] = test system: several human cancer cell lines, including A549 cells; parameters: method as in PMID 19271727, PMID 22920243; conditions: mean over several human cancer cell lines; cited from earlier work
A549 cells = assay: Cell cycle analysis of A549 cells by flow cytometry; format: cell-based, human; conditions: 0.2 μg/mL, 24 h, positive control
Method: We next investigated whether the treatment with AMTs 1–8 caused any cell cycle-related event, which inhibit the viability of A549 cell line. Thus, the cells were treated for 24 h with the AMTs at concentrations of IC50 (Table 1), or with colchicine (at 0.2 μg/mL) as the positive control, and then subjected to flow cytometry analysis to evaluate the distribution of cells in the different phases of the cell cycle (Figure 5A).
Figure 5 Effects of meroterpenoids 1–8 on cell cycle distribution of A549 cells. Cells were incubated with IC50 doses of the compounds for 24 h. (A) Cells were harvested to measure the cell cycle distribution by flow cytometry. (B) Quantitative analysis of cell cycle distribution after treatment. Data represent mean ±SE from three independent experiments. * p < 0.05, ** p < 0.01, and *** p < 0.001 compared with the untreated group (control).
For cell cycle analysis by flow cytometry, A549 cells were seeded at 1 × 10^6 cells/well in 6-well plates and incubated for 24 h followed by treatment with the AMTs, at concentration of IC50, and further incubation for 24 h. Colchicine (final concentration of 0.2 μg/mL) was used as positive control. Cells were harvested after trypsinization and washed once with PBS. Then, the cells were centrifuged at 1500 rpm for 5 min (25 °C), the pellet was fixed with 1 mL of ice-cold 70% ethanol, and the samples were stored at −4 °C overnight. Then the cells were washed with PBS and incubated in the darkness with PBS containing 5 mg/mL of RNase A for 48 h at 4 °C. Subsequently, 50 µL of propidium iodide (0.1 mg/mL) was added and the cells were incubated for 1 h at 4 °C. The relative DNA content per cell was analyzed using a Beckman Coulter Cytomics FC 500 MPL (Beckman Coulter Inc, San Diego, CA, USA). The data acquisition was performed with the DML program. The analysis of the acquired data was performed with the CXP cytometer.

[4] = test system: several human cancer cell lines, including A549 cell line; parameters: method as in PMID 22775218; conditions: cited from earlier work

For 5β-hydroxyaplysin, the IC50 ([1]; read-out: IC50 towards A549) is listed as 35.3 µM.
In the case of 5β-hydroxypalisadin B, the “production of NO, TNF-α, IL-6, IL-1β and COX-2, iNOS expression (in words)” value [2] is given as “inhibit”.
For `C=C(C)[C@@H]1CCC(C)(O)[C@H](Br)CC[C@@]2(C)C(=C(C)CC[C@@H]2Br)Cc2cc(ccc2O)C(=O)O1` (stereo partly shown) [bromophycolide M], the IC50 [3] is given as 3.1 µM.
For `C=C(C)[C@@H]1CCC(C)(O)[C@H](Br)CC[C@@]2(C)[C@H](Cc3cc(ccc3O)C(=O)O1)C(C)=CC[C@@H]2Br` (stereo partly shown) [bromophycolide N], the IC50 [3] is listed as 8.6 µM.
For `CC1=CC[C@H](Br)[C@@]2(C)CC[C@@H](Br)C(C)(O)CC[C@@H](C(C)(C)Br)OC(=O)c3ccc(O)c(c3)C[C@H]12` (stereo partly shown) [bromophycolide O], the IC50 [3] is listed as 9.7 µM.
For `C=C1CC[C@H](Br)[C@@]2(C)CC[C@@H](Br)[C@@]3(C)CC[C@H](OC(=O)c4ccc(O)c(c4)C[C@H]12)C(C)(C)O3` [bromophycolide P], the IC50 [3] is listed as 7.9 µM.
For `CC1=C2Cc3cc(ccc3O)C(=O)O[C@H]3CC[C@@](C)(OC3(C)C)[C@H](Br)CC[C@]2(C)[C@@H](Br)CC1` [bromophycolide Q], the IC50 [3] is given as 2 µM.
In the case of `COc1cc2c(c(OC)c1OC)-c1ccc(OC)c(=O)cc1[C@@H](NC(C)=O)CC2` [colchicine, reference compound], the “cells arrested in G2/M phase” value (A549 cells) is reported as 89.88%.
In the case of `C=C1C[C@H](O)[C@H](Br)C(C)(C)[C@@]12CCC(C)=C(Cl)C2` [elatol], the IC50 ([1]; read-out: IC50 towards A549) is listed as 4.8 µM and the “cell cycle effect (in words)” value [4] is listed as “cell cycle arrest in the G1 and the sub-G1 phases”.
In the case of `CC(C)[C@@H]1CC=C[C@H]2[C@H]3[C@@](C)(C=CC(=O)[C@@]3(C)O)CC[C@]12CBr` [sphaerococcenol A], the IC50 ([1]; read-out: IC50 growth of A549 cells) is given as 3.7 µM.
For bromophycoic acid D, the IC50 [3] is listed as 6.8 µM.
For nerogioltriol, the “activation of NFκB and production of NO, TNF-α and COX-2 (in words)” value [2] is given as “inhibit”.
